The numbers were not newly measured in US20160081975A1, “SOFT GEL COMPOSITIONS AND PRE-GEL CONCENTRATES” (VIRUN, INC., priority 2014, published 2016), which cites them from elsewhere.

The conditions of this data set: reported value.
Regarding sucrose dipalmitate, the HLB value is 7.4.
As to sucrose distearate, the HLB value is listed as 3.
Take sucrose monopalmitate: the HLB value was > 10.
